Test results reported in ChEMBL document CHEMBL1147236, “Semiplenamides A-G, fatty acid amides from a Papua New Guinea collection of the marine cyanobacterium Lyngbya semiplena” (J Nat Prod, 2003).

Tested on: RBL-2H3
Settings: Rattus norvegicus
Description: Activity at AMT in rat RBL-2H3 cells

## CCCCC/C=C\C/C=C\C/C=C\C/C=C\CCCC(=O)NCCO
  Km: 9.3 µM
